Results as given in the supplement of paper PMC11451515.

Tested on: NOMO1
Assay: cell viability relative to DMSO control; higher = less cytotoxic
Conditions: 48 h
Outline: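 Library compounds in DMSO were pin-dosed into 1536-well plates (5 μl) holding NOMO1 or SEM (500 cells/well) or P12-Ichikawa (1000 cells/well) leukemia cells, across an 11-point threefold series of 47 μM to 0.79 nM. Each cell line had been adapted for at least four passages in each medium. CellTiter-Glo One luminescence was read after 48 h at 37°C. Viability is the per-plate percentage relative to DMSO wells, with cell-free wells as background.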

[1] = RPMI 5 mM glucose + 10% FBS, 0.000781 µM
[2] = RPMI 5 mM glucose + 10% FBS, 0.00234 µM
[3] = RPMI 5 mM glucose + 10% FBS, 0.00702 µM
[4] = RPMI 5 mM glucose + 10% FBS, 0.0211 µM
[5] = RPMI 5 mM glucose + 10% FBS, 0.0632 µM
[6] = RPMI 5 mM glucose + 10% FBS, 0.19 µM
[7] = RPMI 5 mM glucose + 10% FBS, 0.569 µM
[8] = RPMI 5 mM glucose + 10% FBS, 1.71 µM
[9] = RPMI 5 mM glucose + 10% FBS, 5.12 µM
[10] = RPMI 5 mM glucose + 10% FBS, 15.4 µM
[11] = RPMI 5 mM glucose + 10% FBS, 46.1 µM
[12] = RPMI 5 mM glucose + 10% dialyzed FBS, 0.000781 µM
[13] = RPMI 5 mM glucose + 10% dialyzed FBS, 0.00234 µM
[14] = RPMI 5 mM glucose + 10% dialyzed FBS, 0.00702 µM
[15] = RPMI 5 mM glucose + 10% dialyzed FBS, 0.0211 µM
[16] = RPMI 5 mM glucose + 10% dialyzed FBS, 0.0632 µM
[17] = RPMI 5 mM glucose + 10% dialyzed FBS, 0.19 µM
[18] = RPMI 5 mM glucose + 10% dialyzed FBS, 0.569 µM
[19] = RPMI 5 mM glucose + 10% dialyzed FBS, 1.71 µM
[20] = RPMI 5 mM glucose + 10% dialyzed FBS, 5.12 µM
[21] = RPMI 5 mM glucose + 10% dialyzed FBS, 15.4 µM
[22] = RPMI 5 mM glucose + 10% dialyzed FBS, 46.1 µM
[23] = HPLM + 10% dialyzed FBS, 0.000781 µM
[24] = HPLM + 10% dialyzed FBS, 0.00234 µM
[25] = HPLM + 10% dialyzed FBS, 0.00702 µM
[26] = HPLM + 10% dialyzed FBS, 0.0211 µM
[27] = HPLM + 10% dialyzed FBS, 0.0632 µM
[28] = HPLM + 10% dialyzed FBS, 0.19 µM
[29] = HPLM + 10% dialyzed FBS, 0.569 µM
[30] = HPLM + 10% dialyzed FBS, 1.71 µM
[31] = HPLM + 10% dialyzed FBS, 5.12 µM
[32] = HPLM + 10% dialyzed FBS, 15.4 µM
[33] = HPLM + 10% dialyzed FBS, 46.1 µM

| SMILES | cell viability [1] [%] | cell viability [2] [%] | cell viability [3] [%] | cell viability [4] [%] | cell viability [5] [%] | cell viability [6] [%] | cell viability [7] [%] | cell viability [8] [%] | cell viability [9] [%] | cell viability [10] [%] | cell viability [11] [%] | cell viability [12] [%] | cell viability [13] [%] | cell viability [14] [%] | cell viability [15] [%] | cell viability [16] [%] | cell viability [17] [%] | cell viability [18] [%] | cell viability [19] [%] | cell viability [20] [%] | cell viability [21] [%] | cell viability [22] [%] | cell viability [23] [%] | cell viability [24] [%] | cell viability [25] [%] | cell viability [26] [%] | cell viability [27] [%] | cell viability [28] [%] | cell viability [29] [%] | cell viability [30] [%] | cell viability [31] [%] | cell viability [32] [%] | cell viability [33] [%] |
| --- | --- | --- | --- | --- | --- | --- | --- | --- | --- | --- | --- | --- | --- | --- | --- | --- | --- | --- | --- | --- | --- | --- | --- | --- | --- | --- | --- | --- | --- | --- | --- | --- | --- |
| CC1=CC=CC=C1CN2C(=O)C/3=C(/CCN(CC4=CC=CC=C4)C3)N\5CC\N=C25 | 109 | 118 | 121 | 124 | 134 | 113 | 116 | 119 | 59 | 20.1 | 21.4 | 132 | 118 | 122 | 126 | 120 | 122 | 133 | 86.6 | 69.9 | 25.9 | 23.6 |  |  |  |  |  |  |  |  |  |  |  |
| Cc1cccc(C)c1OCC(=O)N[C@@H](Cc1ccccc1)[C@@H](O)C[C@H](Cc1ccccc1)NC(=O)[C@H](C(C)C)N1CCCNC1=O | 85.8 | 94 | 97.7 | 85.8 | 95.9 | 97.3 | 84 | 78.4 | 83 | 86.4 | 74.4 | 96.9 | 92.9 | 92.9 | 107 | 91.1 | 89.2 | 81.1 | 82.4 | 89.4 | 76.5 | 71 | 95.1 | 106 | 102 | 109 | 104 | 111 | 89 | 91.5 | 91.4 | 81 | 43.9 |
| CN(C/C=C/C#CC(C)(C)C)Cc1cccc2ccccc12 | 86.4 | 96.7 | 86.2 | 85.1 | 93.2 | 91.8 | 103 | 87.2 | 90 | 94.5 | 100 | 87.9 | 82.4 | 95.8 | 91.6 | 107 | 90.1 | 93.9 | 91.6 | 90.2 | 98.8 | 109 | 93.8 | 125 | 104 | 94.1 | 108 | 104 | 108 | 96.4 | 98 | 92.4 | 106 |
| CN1\C(=C(\O)C2=C(C=CS2)[S+]1([O-])=O)C(=O)NC3=CC=CC=N3 | 100 | 106 | 113 | 111 | 113 | 114 | 94.4 | 101 | 100 | 93.1 | 29.3 | 113 | 114 | 117 | 116 | 110 | 114 | 97.3 | 107 | 109 | 92.7 | 46.3 | 116 | 122 | 123 | 125 | 112 | 112 | 109 | 114 | 95.4 | 100 | 44.6 |
| CCC1(c2ccc(N)cc2)CCC(=O)NC1=O (stereo not given) | 106 | 107 | 116 | 116 | 102 | 117 | 103 | 104 | 123 | 110 | 99.7 | 114 | 111 | 116 | 117 | 118 | 104 | 107 | 123 | 102 | 111 | 111 | 115 | 107 | 125 | 124 | 122 | 119 | 115 | 110 | 116 | 93.9 | 97.6 |
| ClC1=CC(=CC=C1)N2CCN(CCCN3\N=C4\C=C/C=C\N4C3=O)CC2 | 113 | 121 | 123 | 137 | 126 | 137 | 142 | 147 | 137 | 141 | 137 |  |  |  |  |  |  |  |  |  |  |  |  |  |  |  |  |  |  |  |  |  |  |
| CCOc1cc(N)c(Cl)cc1C(=O)NCC1CN(Cc2ccc(F)cc2)CCO1 (stereo not given) | 102 | 115 | 106 | 108 | 114 | 108 | 106 | 113 | 122 | 109 | 104 | 113 | 115 | 122 | 118 | 116 | 111 | 125 | 112 | 111 | 107 | 107 | 85.2 | 120 | 125 | 118 | 119 | 120 | 102 | 120 | 128 | 111 | 107 |
| C=CC1=C(C(=O)O)N2C(=O)[C@@H](NC(=O)/C(=N\O)c3csc(N)n3)[C@H]2SC1 | 104 | 119 | 124 | 118 | 117 | 127 | 116 | 120 | 125 | 134 | 138 | 98.2 | 105 | 115 | 118 | 119 | 125 | 140 | 124 | 121 | 109 | 107 | 82.9 | 110 | 119 | 102 | 123 | 109 | 129 | 129 | 110 | 113 | 118 |
| CC\1=C(C(=O)N(\C=C1)C2=CC=C(C=C2)C3=NC=CO3)/C4=CC5=CN=C(N)N=C5C=C4 | 97 | 103 | 96.1 | 104 | 112 | 116 | 114 | 107 | 124 | 113 | 100 | 99.1 | 89.6 | 103 | 119 | 123 | 107 | 108 | 101 | 107 | 117 | 90 | 98.8 | 107 | 126 | 112 | 108 | 117 | 122 | 122 | 123 | 108 | 94.9 |
| OC[C@H](Cc1ccccc1)Nc1nc(Oc2ccc3c(c2)CCC3)nc2c1ncn2Cc1ccc(-c2ccccc2)cc1 | 79.7 | 83.2 | 84.8 | 96.4 | 102 | 89.7 | 90.3 | 92.2 | 98.8 | 90.5 | 90.2 | 90.7 | 84 | 102 | 95.6 | 98.5 | 101 | 116 | 96.7 | 100 | 114 | 96.3 | 95.3 | 100 | 83.5 | 123 | 86.9 | 98.5 | 108 | 88.6 | 99.5 | 87.2 | 96.7 |
| CN(C)CCc1c[nH]c2ccc(C[C@H]3COC(=O)N3)cc12 | 104 | 98.6 | 106 | 101 | 112 | 97.3 | 110 | 106 | 99.9 | 59.2 | 12.9 | 96.4 | 108 | 106 | 111 | 116 | 114 | 108 | 102 | 109 | 87.8 | 20.1 | 104 | 119 | 106 | 113 | 106 | 121 | 127 | 111 | 104 | 48.1 | 9.77 |
| CNC1[C@@H](O)C(O[C@@H]2C(O)C(O[C@H]3O[C@H]([C@@H](C)NC)CC[C@H]3N)[C@@H](N)C[C@H]2N)OC[C@]1(C)O (stereo not given in full) | 93.4 | 99.6 | 93.2 | 97.3 | 91.3 | 91.2 | 91.2 | 98.9 | 87.7 | 92.8 | 96.7 | 92.4 | 84.5 | 87.1 | 81.2 | 88.5 | 87.7 | 92.1 | 90 | 83.1 | 89.8 | 76.5 | 98.9 | 102 | 104 | 106 | 108 | 98.1 | 106 | 87.4 | 85.3 | 91.4 | 63.7 |
| C[C@@]12O[C@@H](C[C@]1(O)CO)n1c3ccccc3c3c4c(c5c6ccccc6n2c5c31)CNC4=O | 106 | 128 | 102 | 121 | 119 | 96.3 | 77.3 | 42.3 | 39.9 | 24.3 | 5.7 | 103 | 118 | 122 | 138 | 110 | 99.6 | 76.4 | 50 | 31.8 | 27.4 | 4.47 |  |  |  |  |  |  |  |  |  |  |  |
| Oc1ccc(C2CCN(c3ccnc4ccccc34)CC2)cc1O | 108 | 109 | 97.5 | 101 | 107 | 123 | 108 | 120 | 98.9 | 95.7 | 48.6 | 91.9 | 99 | 97.9 | 83.8 | 104 | 96.4 | 103 | 109 | 111 | 98.1 | 70.9 | 101 | 107 | 115 | 101 | 123 | 124 | 113 | 123 | 94.1 | 82.9 | 55.6 |
| CC(C)C[C@H](NC(=O)[C@@H](NC(=O)c1cccc(-c2ccccc2)n1)[C@@H](C)O)B(O)O | 94.7 | 111 | 115 | 128 | 66.2 | 23.5 | 8.87 | 10.1 | 7.67 | 5.17 | 3.38 | 104 | 125 | 126 | 131 | 86.9 | 39.9 | 10.7 | 8.94 | 8.79 | 5.46 | 3.79 |  |  |  |  |  |  |  |  |  |  |  |
